Data reported in patent US12428430B2 (BRISTOL-MYERS SQUIBB COMPANY, priority 2018, dated 2025).

Molecular target: hLPA1 (Homo sapiens, UniProt Q92633)
Assay: LPA1 functional antagonist assay (LPA-induced calcium flux in CHO cells overexpressing human LPA1)
Assay type: cell-based
Design: expressed in transfected cells; host or cells: Chinese hamster ovary (CHO) cells
Details: antagonist mode, inhibition of calcium flux induced by 10 nM LPA, read-out: hLPA1 IC50
Method: The effectiveness of compounds of the present invention as LPA1 inhibitors can be determined in an LPA1 functional antagonist assay as follows:
Chinese hamster ovary cells overexpressing human LPA1 were plated overnight (15,000 cells/well) in poly-D-lysine coated 384-well microplates (Greiner bio-one, Cat #781946) in DMEM/F12 medium (Gibco, Cat #11039). Following overnight culture, cells were loaded with calcium indicator dye (AAT Bioquest Inc, Cat #34601) for 30 minutes at 37° C. The cells were then equilibrated to room temperature for 30 minutes before the assay. Test compounds solubilized in DMSO were transferred to 384 well non-binding surface plates (Corning, Cat #3575) using the Labcyte Echo acoustic dispense and diluted with assay buffer [1×HBSS with calcium/magnesium (Gibco Cat #14025-092), 20 mM HEPES (Gibco Cat #15630-080) and 0.1% fatty acid free BSA (Sigma Cat #A9205)] to a final concentration of 0.5% DMSO. Diluted compounds were added to the cells by FDSS6000 (Hamamatsu) at final concentrations ranging from 0.08 nM to 5 μM. and were then incubated for 20 min at room temperature at which time LPA (Avanti Polar Lipids Cat #857130C) was added at final concentrations of 10 nM to stimulate the cells. The compound IC50 value was defined as the concentration of test compound which inhibited 50% of the calcium flux induced by LPA alone. IC50 values were determined by fitting data to a 4-parameter logistic equation (GraphPad Prism, San Diego Calif.).

Chain of hLPA1 (Q92633 whole entry): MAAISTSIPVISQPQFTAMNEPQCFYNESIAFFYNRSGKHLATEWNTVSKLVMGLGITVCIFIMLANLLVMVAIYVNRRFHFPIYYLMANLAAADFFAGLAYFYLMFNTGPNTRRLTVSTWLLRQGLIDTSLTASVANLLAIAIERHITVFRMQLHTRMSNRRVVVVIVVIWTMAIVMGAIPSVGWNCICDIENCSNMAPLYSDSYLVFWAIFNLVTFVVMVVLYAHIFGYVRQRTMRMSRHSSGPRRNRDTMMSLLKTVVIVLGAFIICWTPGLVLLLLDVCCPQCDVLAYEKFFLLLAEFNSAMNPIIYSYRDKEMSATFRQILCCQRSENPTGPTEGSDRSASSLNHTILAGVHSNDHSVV

Compound	IC50
C[C@@H](OC(=O)Nc1c(-c2ccc(C34CCC(CCC(=O)O)(CC3)OC4)cc2)nnn1C)c1ccccc1 [Example 7, 3-(4-(4-(1-methyl-5-((((R)-1-phenylethoxy)carbonyl)amino)-1H-1,2,3-triazol-4-yl)phenyl)-2-oxabicyclo[2.2.2]octan-1-yl)propanoic acid]	0.264 µM
Cc1noc(-c2ccc(C34CCC(CC(=O)O)(CC3)OC4)c(F)c2)c1NC(=O)OC(C)c1cccc(Cl)c1 (racemic) [Example 19, (±)-2-(4-(4-(4-(((1-(3-chlorophenyl)ethoxy)carbonyl)amino)-3-methyl-isoxazol-5-yl)-2-fluorophenyl)-2-oxabicyclo[2.2.2]octan-1-yl)acetic acid]	0.692 µM
CN(Cc1ccccc1)C(=O)OCc1c(-c2ccc(C34CCC(CC(=O)O)(CC3)OC4)cc2)cnn1C [Example 40, 2-(4-(4-(5-(((benzyl(methyl)carbamoyl)oxy)methyl)-1-methyl-1H-pyrazol-4-yl)phenyl)-2-oxabicyclo[2.2.2]octan-1-yl)acetic acid]	0.767 µM
Cc1noc(-c2ccc(C34CCC(CC(=O)O)(CC3)CO4)cc2)c1COC(=O)N(C)C1CCCC1 [Example 53, 2-(1-(4-(4-(((cyclopentyl(methyl)carbamoyl)oxy)methyl)-3-methylisoxazol-5-yl)phenyl)-2-oxabicyclo[2.2.2]octan-4-yl)acetic acid]	2.55 µM
CC(C1CCC1)N(C)C(=O)OCc1c(-c2ccc(C34CCC(CCC(=O)O)(CC3)OC4)cc2)nnn1C (racemic) [Example 5, (±)-3-(4-(4-(5-((((1-Cyclobutylethyl)(methyl)carbamoyl)oxy)methyl)-1-methyl-1H-1,2,3-triazol-4-yl)phenyl)-2-oxabicyclo[2.2.2]octan-1-yl)propanoic acid]	0.44 µM
Cc1cc(C23CCC(CC(=O)O)(CC2)OC3)ccc1-c1onc(C)c1NC(=O)O[C@H](C)c1ccccc1Cl [Example 27, 2-(4-(4-(4-((((R)-1-(2-chlorophenyl)ethoxy)carbonyl)amino)-3-methyl-isoxazol-5-yl)-3-methylphenyl)-2-oxabicyclo[2.2.2]octan-1-yl)acetic acid]	0.185 µM
Cc1noc(-c2ccc(C34CCC(CC(=O)O)(CC3)OC4)cc2F)c1NC(=O)OC(C)c1cccc(Cl)c1 (racemic) [Example 25, (±)-2-(4-(4-(4-(((1-(3-chlorophenyl)ethoxy)carbonyl)amino)-3-methyl-isoxazol-5-yl)-3-fluorophenyl)-2-oxabicyclo[2.2.2]octan-1-yl)acetic acid]	0.345 µM
2-(4-(4-(4 2-(4-(4-(4-((((cyclobutyl-methyl)carbamoyl)oxy)methyl)-3-methylisoxazol-5-yl)phenyl)-2-oxabicyclo[2.2.2]octan-1-yl)acetic acid [Example 35]	0.655 µM
CN(C(=O)OCc1c(-c2ccc(C34CCC(CC(=O)O)(CC3)OC4)cc2)cnn1C)C1CCCC1 [Example 4, 2-(4-(4-(5-(((cyclopentyl(methyl)carbamoyl)oxy)methyl)-1-methyl-1H-pyrazol-4-yl)phenyl)-2-oxabicyclo[2.2.2]octan-1-yl)acetic acid]	1.61 µM
Cc1ccccc1[C@@H](C)OC(=O)Nc1c(C)noc1-c1ccc(C23CCC(CC(=O)O)(CC2)CO3)cc1 [Example 49, 2-(1-(4-(3-methyl-4-((((R)-1-(o-tolyl)ethoxy)carbonyl)amino)isoxazol-5-yl)phenyl)-2-oxabicyclo[2.2.2]octan-4-yl)acetic acid]	0.303 µM
Cc1noc(-c2ccc(C34CCC(CC(=O)O)(CC3)OC4)cc2F)c1NC(=O)OC(C)c1ccc(Cl)cc1 (racemic) [Example 24, (±)-2-(4-(4-(4-(((1-(4-chlorophenyl)ethoxy)carbonyl)amino)-3-methyl-isoxazol-5-yl)-3-fluorophenyl)-2-oxabicyclo[2.2.2]octan-1-yl)acetic acid]	0.406 µM

More lines, in order of falling IC50, values ahead:

IC50	Compound
1.9 µM	Cn1ncc(-c2ccc(C34CCC(CC(=O)O)(CC3)OC4)cc2)c1COC(=O)N1CC[C@H](F)C1 [Example 38, 2-(4-(4-(5-((((S)-3-fluoropyrrolidine-1-carbonyl)oxy)methyl)-1-methyl-1H-pyrazol-4-yl)phenyl)-2-oxabicyclo[2.2.2]octan-1-yl)acetic acid]
1.14 µM	CC(OC(=O)Nc1c(-c2ccc(C34CCC(CC(=O)O)(CC3)OC4)c(F)c2)cnn1C)c1ccc(Cl)cc1 (racemic) [Example 29, (±)-2-(4-(4-(5-(((1-(4-chlorophenyl)ethoxy)carbonyl)amino)-1-methyl-1H-pyrazol-4-yl)-2-fluorophenyl)-2-oxabicyclo[2.2.2]octan-1-yl)acetic acid]
1.12 µM	CC(C)CCN(C)C(=O)OCc1c(-c2ccc(C34CCC(CC(=O)O)(CC3)OC4)cc2F)cnn1C [Example 45, 2-(4-(3-fluoro-4-(5-(((isopentyl(methyl)carbamoyl)oxy)methyl)-1-methyl-1H-pyrazol-4-yl)phenyl)-2-oxabicyclo[2.2.2]octan-1-yl)acetic acid]
0.537 µM	Cc1cc(C23CCC(CC(=O)O)(CC2)OC3)ccc1-c1cnn(C)c1NC(=O)O[C@H](C)c1ccccc1Cl [Example 33, 2-(4-(4-(5-((((R)-1-(2-chlorophenyl)ethoxy)carbonyl)amino)-1-methyl-1H-pyrazol-4-yl)-3-methylphenyl)-2-oxabicyclo[2.2.2]octan-1-yl)acetic acid]
0.422 µM	C[C@@H](OC(=O)Nc1c(-c2ccc(C34CCC(CC(=O)O)(CC3)OC4)cc2)cnn1CC1CC1)c1ccccc1 [Example 10, (R)-2-(4-(4-(1-(cyclopropylmethyl)-5-(((1-phenylethoxy)carbonyl)amino)-1H-pyrazol-4-yl)phenyl)-2-oxabicyclo[2.2.2]octan-1-yl)acetic acid]
0.418 µM	C[C@@H](OC(=O)Nc1c(-c2ccc(C34CCC(CCC(=O)O)(CC3)OC4)cc2)nnn1C)c1ccccc1Cl [Example 8, 3-(4-(4-(5-((((R)-1-(2-chlorophenyl)ethoxy)carbonyl)amino)-1-methyl-1H-1,2,3-triazol-4-yl)phenyl)-2-oxabicyclo[2.2.2]octan-1-yl)propanoic acid]
0.365 µM	C[C@@H](OC(=O)Nc1c(-c2ccc(C34CCC(CC(=O)O)(CC3)OC4)c(F)c2)cnn1C)c1ccccc1 [Example 30, 2-(4-(2-fluoro-4-(1-methyl-5-((((R)-1-phenylethoxy)carbonyl)amino)-1H-pyrazol-4-yl)phenyl)-2-oxabicyclo[2.2.2]octan-1-yl)acetic acid]
0.271 µM	CC(C)CCN(C)C(=O)OCc1c(-c2ccc(C34CCC(CC(=O)O)(CC3)OC4)c(F)c2)cnn1C [Example 43, 2-(4-(2-fluoro-4-(5-(((isopentyl(methyl)carbamoyl)oxy)methyl)-1-methyl-1H-pyrazol-4-yl)phenyl)-2-oxabicyclo[2.2.2]octan-1-yl)acetic acid]
0.222 µM	Cc1noc(-c2ccc(C34CCC(CC(=O)O)(CC3)CO4)c(F)c2)c1NC(=O)O[C@H](C)C1CC1 [Example 51, 2-(1-(4-(4-((((R)-1-cyclopropylethoxy)carbonyl)amino)-3-methylisoxazol-5-yl)-2-fluorophenyl)-2-oxabicyclo[2.2.2]octan-4-yl)acetic acid]
0.194 µM	Cc1noc(-c2ccc(C34CCC(CC(=O)O)(CC3)OC4)cc2)c1NC(=O)O[C@H](C)C1CC1 [Example 11, 2-(4-(4-(4-((((R)-1-cyclopropyl-ethoxy)carbonyl)amino)-3-methylisoxazol-5-yl)phenyl)-2-oxabicyclo[2.2.2]octan-1-yl)acetic acid]
0.184 µM	Cc1ccccc1[C@@H](C)OC(=O)Nc1c(C)noc1-c1ccc(C23CCC(CC(=O)O)(CC2)OC3)cc1 [Example 13, 2-(4-(4-(3-methyl-4-((((R)-1-(o-tolyl)ethoxy)carbonyl)amino)isoxazol-5-yl)phenyl)-2-oxabicyclo[2.2.2]octan-1-yl)acetic acid]
0.134 µM	Cc1noc(-c2ccc(C34CCC(CC(=O)O)(CC3)CO4)cc2)c1NC(=O)O[C@H](C)c1ccccc1F [Example 52, 2-(1-(4-(4-((((R)-1-(2-fluorophenyl)ethoxy)carbonyl)amino)-3-methyl-isoxazol-5-yl)phenyl)-2-oxabicyclo[2.2.2]octan-4-yl)acetic acid]
0.117 µM	Cc1noc(-c2ccc(C34CCC(CC(=O)O)(CC3)OC4)cc2)c1NC(=O)OC(C)c1ccc(Cl)cc1 (racemic) [Example 14]
0.115 µM	C[C@@H](OC(=O)Nc1c(-c2ccc(C34CCC(CC(=O)O)(CC3)OC4)cc2F)cnn1C)c1ccccc1Cl [Example 32, 2-(4-(4-(5-((((R)-1-(2-chlorophenyl)ethoxy)carbonyl)amino)-1-methyl-1H-pyrazol-4-yl)-3-fluorophenyl)-2-oxabicyclo[2.2.2]octan-1-yl)acetic acid]
0.056 µM	Cc1noc(-c2ccc(C34CCC(CC(=O)O)(CC3)OC4)c(F)c2)c1NC(=O)O[C@H](C)c1ccccc1Cl [Example 18, 2-(4-(4-(4-((((R)-1-(2-chlorophenyl)ethoxy)carbonyl)amino)-3-methyl-isoxazol-5-yl)-2-fluorophenyl)-2-oxabicyclo[2.2.2]octan-1-yl)acetic acid]
